The assay addresses Envelope glycoprotein gp160 (Human immunodeficiency virus 1, UniProt Q6QLK5). Description: inhibitors of HIV fusion peptide binding, primary screen, biochemical, uHTS, fluorescence dequenching (AID 1986).

The source made the active and inactive calls. Rule as the data show it: actives have a measured IC50 and inactives only a lower limit.

Sequence of Envelope glycoprotein gp160 (Q6QLK5 whole entry, the tested form may be a part): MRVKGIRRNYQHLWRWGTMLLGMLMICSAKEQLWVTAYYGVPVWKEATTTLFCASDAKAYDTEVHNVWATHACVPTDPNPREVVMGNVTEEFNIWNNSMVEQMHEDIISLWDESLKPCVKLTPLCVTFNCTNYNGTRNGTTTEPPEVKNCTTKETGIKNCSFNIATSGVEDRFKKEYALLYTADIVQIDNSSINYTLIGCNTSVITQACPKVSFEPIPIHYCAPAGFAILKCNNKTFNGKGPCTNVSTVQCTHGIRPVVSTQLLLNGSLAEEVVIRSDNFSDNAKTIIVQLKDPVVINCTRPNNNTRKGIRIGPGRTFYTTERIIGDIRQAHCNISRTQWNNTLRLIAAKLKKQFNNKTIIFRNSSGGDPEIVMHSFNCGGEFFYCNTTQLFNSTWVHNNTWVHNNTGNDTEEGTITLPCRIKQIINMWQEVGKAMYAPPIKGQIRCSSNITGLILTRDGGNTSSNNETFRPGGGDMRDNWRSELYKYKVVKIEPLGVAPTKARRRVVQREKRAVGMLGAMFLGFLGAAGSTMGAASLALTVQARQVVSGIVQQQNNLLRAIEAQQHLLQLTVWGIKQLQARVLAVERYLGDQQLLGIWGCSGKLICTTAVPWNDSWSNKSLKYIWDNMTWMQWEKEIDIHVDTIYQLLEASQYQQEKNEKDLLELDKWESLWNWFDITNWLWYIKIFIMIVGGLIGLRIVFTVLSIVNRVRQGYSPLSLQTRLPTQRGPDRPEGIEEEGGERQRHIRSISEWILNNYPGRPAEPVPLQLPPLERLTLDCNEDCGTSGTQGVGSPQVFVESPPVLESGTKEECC

In general, IC50 refers to the concentration needed to halve the response being measured. As for `COc1ccc(NC(=O)c2cnn3c(O)cc(C4CCN(C(=O)OC(C)(C)C)CC4)nc23)cc1Cl`, the IC50 is 16.6 µM (active).
For the compound `O=C(O)CSCC(=O)N(Cc1ccccc1)c1nc(-c2ccccc2)c(-c2ccccc2)s1`, the IC50 is 13.3 µM (active).

(Values after ChEMBL document CHEMBL1201862, “PubChem BioAssay data set” (2004).)
